From ChEMBL document CHEMBL5728275 (2021)

Biological target: Dihydroorotate dehydrogenase (quinone), mitochondrial (Homo sapiens, UniProt Q02127)
Experiment: Method for Testing Activities of Compounds at Enzyme Level: Principles of activity test at enzyme level: firstly, dihydroorotate (DHO) is oxidatively dehydrogenated by DHODH to form orotic acid (Orotate, OA), accompanied by reduction of Flavin mononucleotide (FMN) into reduced flavin mononucleotide (FMNH2) by accepting 2H+ and 2e−, then coenzyme Q (CoQ) as hydrogen acceptor accepting electron and proton from FMNH2 is reduced into reduced coenzyme Q (CoQH2), reduced coenzyme Q transfers electrons to a chromogenic substrate, […] (DCIP), and finally DCIP was reduced. […] The degree to which the substrate DHO is oxidized can be judged based on the degree of decrease in absorbance. The degree of oxidation of the substrate DHO per unit time is the initial rate of the enzymatic reaction. […] Substrate DHO was added to start the reaction with a DHO final concentration of 500 μM. The absorbance was read at 600 nm using a BioTek microplate reader and read every 30 s for 6 min. […] For calculating IC50 of a compound, Origin 8.0 was used to test the inhibition rate at least 8 concentrations.
Format: single protein

Sequence of Dihydroorotate dehydrogenase (quinone), mitochondrial (Q02127 whole entry): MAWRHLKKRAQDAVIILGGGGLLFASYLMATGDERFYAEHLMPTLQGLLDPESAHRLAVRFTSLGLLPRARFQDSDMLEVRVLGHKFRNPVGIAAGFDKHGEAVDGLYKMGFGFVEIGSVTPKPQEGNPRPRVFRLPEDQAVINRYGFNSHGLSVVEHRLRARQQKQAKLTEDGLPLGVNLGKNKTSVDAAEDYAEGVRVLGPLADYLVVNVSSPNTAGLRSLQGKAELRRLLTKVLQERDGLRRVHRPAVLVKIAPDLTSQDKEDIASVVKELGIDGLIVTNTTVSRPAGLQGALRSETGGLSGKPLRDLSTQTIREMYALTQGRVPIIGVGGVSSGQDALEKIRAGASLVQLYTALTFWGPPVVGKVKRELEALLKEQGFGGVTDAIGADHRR

IC50 [µM] | Structure (SMILES)
> 50 | O=C(OCCc1ccccc1)c1ccccc1/C=N/Nc1nc(-c2ccccc2Cl)cs1
0.0355 | Cc1sc(N(C)/N=C/c2ccccc2C(=O)O)nc1-c1ccccc1Cl

Structure (SMILES) | IC50 [µM]
CN(/N=C/c1ccccc1C(=O)OCCc1ccccc1)c1nc(-c2ccccc2Cl)cs1 | > 50
